Reference: publication PMC6537165 (Slas Discovery, 2019)

Tested on: Wolbachia pipientis (wAlbB) in C6/36 (wAlbB) cells
Test: acumen high-throughput anti-Wolbachia assay
Assay type: cell-based
Details: C6/36, 168 h, read-out: anti-Wolbachia IC50 in the acumen assay

IC50: 0.0178 µM
SMILES: C[C@H]1c2cccc(O)c2C(=O)C2=C(O)[C@]3(O)C(=O)C(C(N)=O)=C(O)[C@@H](N(C)C)[C@@H]3[C@@H](O)[C@@H]21 [Doxycycline, doxycycline]
